Assay results: PubChem BioAssay AID2060622 (Molecular Pharmacology Branch, DTP, NCI, 2025)

Tested on: 242566-281-R-J2-PDC complex spheroid viability
Test: Anticancer human tumor 242566-281-R-J2-PDC patient-derived pancreatic carcinoma cell line growth inhibition [CLK]
Conditions: for IC50: curve of first compound; for viability, T/C: stronger effect = lower value
Procedure, shortened: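 Multi-cell-type spheroids combined patient-derived tumor cells with HUVEC endothelial cells and human mesenchymal stem cells. Paired agents were dosed in half-log steps down from about clinical Cmax, or from 10 microM where Cmax was unknown.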

[1] = second compound 0.0316 µM, first compound 0.0316 µM
[2] = second compound 0.0316 µM, first compound 0.1 µM
[3] = second compound 0.0316 µM, first compound 0.316 µM
[4] = second compound 0.0316 µM, first compound 1 µM
[5] = second compound 0.0316 µM, first compound 3.16 µM
[6] = second compound 0.0316 µM, first compound 10 µM
[7] = second compound 0.1 µM, first compound 0.0316 µM
[8] = second compound 0.1 µM, first compound 0.1 µM
[9] = second compound 0.1 µM, first compound 0.316 µM
[10] = second compound 0.1 µM, first compound 1 µM
[11] = second compound 0.1 µM, first compound 3.16 µM
[12] = second compound 0.1 µM, first compound 10 µM
[13] = second compound 0.316 µM, first compound 0.0316 µM
[14] = second compound 0.316 µM, first compound 0.1 µM
[15] = second compound 0.316 µM, first compound 0.316 µM
[16] = second compound 0.316 µM, first compound 1 µM
[17] = second compound 0.316 µM, first compound 3.16 µM
[18] = second compound 0.316 µM, first compound 10 µM
[19] = second compound 1 µM, first compound 0.0316 µM
[20] = second compound 1 µM, first compound 0.1 µM
[21] = second compound 1 µM, first compound 0.316 µM
[22] = second compound 1 µM, first compound 1 µM
[23] = second compound 1 µM, first compound 3.16 µM
[24] = second compound 1 µM, first compound 10 µM
[25] = second compound 3.16 µM, first compound 0.0316 µM
[26] = second compound 3.16 µM, first compound 0.1 µM
[27] = second compound 3.16 µM, first compound 0.316 µM
[28] = second compound 3.16 µM, first compound 1 µM
[29] = second compound 3.16 µM, first compound 3.16 µM
[30] = second compound 3.16 µM, first compound 10 µM
[31] = second compound 10 µM, first compound 0.0316 µM
[32] = second compound 10 µM, first compound 0.1 µM
[33] = second compound 10 µM, first compound 0.316 µM
[34] = second compound 10 µM, first compound 1 µM
[35] = second compound 10 µM, first compound 3.16 µM
[36] = second compound 10 µM, first compound 10 µM
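Also: spheroids exposed to compounds for 7 days before readout.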
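For viability, T/C in this document: 100% = DMSO vehicle control wells.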

CCCS(=O)(=O)Nc1ccc(F)c(C(=O)c2c[nH]c3ncc(-c4ccc(Cl)cc4)cc23)c1F + CNC(=O)c1ccc(Nc2nc(OC3CCCC3)c3c(-c4ccc5nc(C)oc5c4)c[nH]c3n2)c(OC)c1
IC50 (second compound 0.0316 µM): 5.93 µM
IC50 (second compound 0.1 µM): 5.31 µM
IC50 (second compound 0.316 µM): 3.85 µM
IC50 (second compound 1 µM): 2.14 µM
IC50 (second compound 3.16 µM): 0.379 µM
IC50 (second compound 10 µM): < 0.0316 µM
viability, T/C [1]: 89.8%
viability, T/C [2]: 99.1%
viability, T/C [3]: 86.6%
viability, T/C [4]: 125%
viability, T/C [5]: 104%
viability, T/C [6]: 7.61%
viability, T/C [7]: 82.2%
viability, T/C [8]: 92.3%
viability, T/C [9]: 88.2%
viability, T/C [10]: 76.7%
viability, T/C [11]: 87.9%
viability, T/C [12]: 6.61%
viability, T/C [13]: 74.5%
viability, T/C [14]: 81.1%
viability, T/C [15]: 59.9%
viability, T/C [16]: 63.1%
viability, T/C [17]: 61.3%
viability, T/C [18]: 10.2%
viability, T/C [19]: 75.2%
viability, T/C [20]: 63.2%
viability, T/C [21]: 66.7%
viability, T/C [22]: 64.8%
viability, T/C [23]: 42.6%
viability, T/C [24]: 11.8%
viability, T/C [25]: 54.9%
viability, T/C [26]: 50.6%
viability, T/C [27]: 50.2%
viability, T/C [28]: 44.6%
viability, T/C [29]: 26.5%
viability, T/C [30]: 16.4%
viability, T/C [31]: 49.2%
viability, T/C [32]: 47%
viability, T/C [33]: 53%
viability, T/C [34]: 47%
viability, T/C [35]: 30.1%
viability, T/C [36]: 17.9%

C=CC(=O)N1CCN(c2nc(=O)n(-c3c(C)ccnc3C(C)C)c3nc(-c4c(O)cccc4F)c(F)cc23)C(C)C1 (centres undefined) + CNC(=O)c1ccc(Nc2nc(OC3CCCC3)c3c(-c4ccc5nc(C)oc5c4)c[nH]c3n2)c(OC)c1
IC50 (second compound 0.0316 µM): > 10 µM
IC50 (second compound 0.1 µM): > 10 µM
IC50 (second compound 0.316 µM): > 10 µM
IC50 (second compound 1 µM): > 10 µM
IC50 (second compound 3.16 µM): > 10 µM
IC50 (second compound 10 µM): > 10 µM
viability, T/C [1]: 104%
viability, T/C [2]: 94%
viability, T/C [3]: 120%
viability, T/C [4]: 128%
viability, T/C [5]: 89%
viability, T/C [6]: 73.9%
viability, T/C [7]: 101%
viability, T/C [8]: 115%
viability, T/C [9]: 87.7%
viability, T/C [10]: 104%
viability, T/C [11]: 88.1%
viability, T/C [12]: 70.9%
viability, T/C [13]: 95.7%
viability, T/C [14]: 92%
viability, T/C [15]: 74.3%
viability, T/C [16]: 87.1%
viability, T/C [17]: 71.1%
viability, T/C [18]: 67.3%
viability, T/C [19]: 79.3%
viability, T/C [20]: 68.1%
viability, T/C [21]: 72.5%
viability, T/C [22]: 69.6%
viability, T/C [23]: 70.7%
viability, T/C [24]: 57.2%
viability, T/C [25]: 60.5%
viability, T/C [26]: 52.6%
viability, T/C [27]: 52.9%
viability, T/C [28]: 56.4%
viability, T/C [29]: 58.1%
viability, T/C [30]: 54.8%
viability, T/C [31]: 54.5%
viability, T/C [32]: 53.6%
viability, T/C [33]: 58.8%
viability, T/C [34]: 53%
viability, T/C [35]: 53.6%
viability, T/C [36]: 51.8%
